The text below walks through data of patent publication US8772504B2, “Substituted benzoxazole, benzimidazole, oxazolopyridine and imidazopyridine derivatives as gamma secretase modulators” (Janssen Pharmaceuticals, Inc., priority 2009, dated 2014).

The test system of assay [1] is Aβtotal. Nature of the assay: Screening for γ-secretase-modulating activity, Method 1: Aβtotal sandwich ELISA on SKNBE2 cell media. Type of assay: cell-based. Particulars: SKNBE2 cells carrying APP 695 wild type. The method in brief: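 SKNBE2 cells expressing wild-type APP 695 were treated with compound for 18 hours. Aβtotal in the medium was measured by sandwich ELISA (6E10 capture, biotinylated 4G8 detection, fluorogenic peroxidase read-out). IC50 came from a 4-parameter fit of % inhibition with top/bottom fixed at 100/0 and Hill slope 1, or as averaged IC50 from % of untreated control.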
Background: In an ELISA, binding on a coated surface is turned into a signal by an enzyme label.

The subject of assay [2] is Aβtotal. Nature of the assay: In vivo efficacy Method 1: brain soluble Aβtotal by ELISA. Details: species or system mouse. The following applies: Table 4a, single oral dose, overnight fasted animals, sacrificed after 4 h, soluble fraction of brain homogenates. The method in brief: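 Overnight-fasted rodents or APP transgenic mice given a single oral dose in 20% Captisol or 20% hydroxypropyl β-cyclodextrin and sacrificed after 4 h. Right-hemisphere homogenate high-speed supernatant used: neutralized portion for Aβtotal, Oasis HLB-purified and concentrated eluate for Aβ42, both quantified by ELISA.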

Setting [3] is: Homo sapiens, Table 3a, 18 hours, XLfit, top/bottom fixed to 100 and 0, hill slope 1.
Where [4] appears, read: Homo sapiens, Table 3b, non-linear regression of % of control, averaged IC50 values.
[5] abbreviates: Table 3a, 18 hours, XLfit, top/bottom fixed to 100 and 0, hill slope 1.
The mark [6] stands for this setting: Table 3b, non-linear regression of % of control, averaged IC50 values.

With `COc1cc(Nc2cccc3c2nc(-c2ccc(F)cc2)n3C)ccc1-n1cnc(C)c1` [Compound 1], the values for the IC50 with Aβtotal [1] (setting [3]) and in the assay with Aβtotal [1] (setting [4]) were > 1000 nM and 13500 nM, respectively. Further, the “Aβtotal (% Ctrl) _Mean” value in the assay on Aβtotal [2] is 100 % Ctrl.
For `COc1cc(Nc2cccc3c2nc(-c2ccc(F)cc2)n3C)ccc1-n1cnc(C)n1` [Compound 4], the IC50 with Aβtotal [1] (setting [3]) and with Aβtotal [1] (setting [4]) was > 3000 nM throughout. For the same compound, the “Aβtotal (% Ctrl) _Mean” value in the assay with Aβtotal [2] came to 92 % Ctrl.
With `COc1cc(Nc2nccc3c2nc(-c2ccc(F)cc2)n3C)ccc1-n1cnc(C)c1` [Compound 8], the IC50 with Aβtotal [1] (setting [3]) and in the assay with Aβtotal [1] (setting [4]) was > 3000 nM each time. Moreover, the “Aβtotal (% Ctrl) _Mean” value with Aβtotal [2] worked out at 91 % Ctrl.
With `COc1nc(Nc2cccc3c2nc(-c2ccc(F)cc2)n3C)ccc1-n1cnc(C)c1` [Compound 15], the 50% inhibitory concentration (IC50) in the assay on Aβtotal [1] (setting [3]) and in the assay with Aβtotal [1] (setting [4]) was > 3000 nM throughout. Moreover, the “Aβtotal (% Ctrl) _Mean” value with Aβtotal [2] came out at 83 % Ctrl.
On to `CCn1c(CC2CC2)nc2c(Nc3ccc(-n4cnc(C)c4)c(OC)c3)cccc21` [Compound 36], for which the IC50 in the assay with Aβtotal [1] (setting [5]) and in the assay with Aβtotal [1] (setting [6]) was > 3000 nM each time. Further, the “Aβtotal (% Ctrl) _Mean” value in the assay with Aβtotal [2] is on record as 95 % Ctrl.
In the case of `COc1cc(Nc2cccc3c2nc(Oc2ccccc2)n3C)ccc1-n1cnc(C)c1` [Compound 61], the IC50 in the assay on Aβtotal [1] (setting [5]) and in the assay with Aβtotal [1] (setting [6]) was > 3000 nM in each case. Moreover, the “Aβtotal (% Ctrl) _Mean” value in the assay with Aβtotal [2] was 97 % Ctrl.
Consider `Cc1cn(-c2ccc(Nc3cccc4c3nc(-c3ccc(F)cc3)n4C)cc2F)cn1` [Compound 67], for which the IC50 in the assay on Aβtotal [1] (setting [5]) and in the assay with Aβtotal [1] (setting [6]) was > 3000 nM throughout. Further, the “Aβtotal (% Ctrl) _Mean” value in the assay with Aβtotal [2] was determined as 99 % Ctrl.
Consider `Cc1ncn(-c2ccc(Nc3cccc4c3nc(-c3ccc(F)cc3)n4C(C)C)cc2)n1.Cl.Cl` [Compound 73], for which the IC50 in the assay with Aβtotal [1] (setting [5]) and in the assay on Aβtotal [1] (setting [6]) was > 3000 nM throughout. Moreover, the “Aβtotal (% Ctrl) _Mean” value with Aβtotal [2] came to 97 % Ctrl.
`COc1cc(Nc2cccc3c2nc(-c2ccc(F)cc2)n3C(C)C)ccc1-n1cnc(C)n1.Cl.Cl` [Compound 75]: the half-maximal inhibitory concentration (IC50) with Aβtotal [1] (setting [5]) and in the assay with Aβtotal [1] (setting [6]) was > 3000 nM throughout. In the assay on Aβtotal [2], the “Aβtotal (% Ctrl) _Mean” value was 92 % Ctrl.
Consider `Cc1ncn(-c2ccc(Nc3cccc4c3nc(-c3ccc(F)cc3)n4C(C)C)cn2)n1` [Compound 76], for which the figures for the IC50 in the assay on Aβtotal [1] (setting [5]) and with Aβtotal [1] (setting [6]) were > 3000 nM and > 10000 nM, respectively. Moreover, the “Aβtotal (% Ctrl) _Mean” value with Aβtotal [2] worked out at 102 % Ctrl.
As for `COc1cc(Nc2nccc3c2nc(-c2ccc(F)cc2)n3C)ccc1-n1cnc(C)n1` [Compound 92], the IC50 in the assay on Aβtotal [1] (setting [5]) and in the assay on Aβtotal [1] (setting [6]) was > 10000 nM throughout. Further, the “Aβtotal (% Ctrl) _Mean” value in the assay with Aβtotal [2] stood at 103 % Ctrl.
Take `COc1cc(Nc2cc(C(C)C)nc3c2nc(-c2ccc(F)cc2)n3C)ccc1-n1cnc(C)n1` [Compound 110]: the IC50 in the assay on Aβtotal [1] (setting [3]) is > 3000 nM; in the assay on Aβtotal [1] (setting [4]), 1170 nM.
In the case of `COc1cc(-c2nc3c(Nc4ccc(-n5cnc(C)n5)c(OC)c4)nccc3n2C)ccc1Cl` [Compound 114], the IC50 with Aβtotal [1] (setting [3]) and in the assay with Aβtotal [1] (setting [4]) was > 3000 nM each time.
As for `COc1nc(Nc2cc(F)cc3c2nc(-c2ccc(F)cc2)n3C)ccc1-n1cnc(C)c1` [Compound 115], the IC50 with Aβtotal [1] (setting [5]) was > 10000 nM. For the same compound, the “Aβtotal (% Ctrl) _Mean” value in the assay with Aβtotal [2] is listed as 93 % Ctrl.
Consider `COc1cc(Nc2nccc3c2nc(-c2ccccc2C(F)(F)F)n3C)ccc1-n1cnc(C)n1` [Compound 130], for which the half-inhibitory concentration (IC50) with Aβtotal [1] (setting [6]) was > 3000 nM. Besides, the “Aβtotal (% Ctrl) _Mean” value with Aβtotal [2] is reported as 94 % Ctrl.
`COc1cc(Nc2nc(C)cc3c2nc(-c2ccc(F)cc2)n3C)ccc1-n1cnc(C)n1` [Compound 164]: the IC50 in the assay with Aβtotal [1] (setting [6]) is > 3000 nM. Besides, the “Aβtotal (% Ctrl) _Mean” value with Aβtotal [2] stood at 97 % Ctrl.

In general, IC50 refers to the midpoint of a concentration-inhibition curve. Low values mean inhibition by little substance, high ones a need for much substance.
